Laboratory results from US20250197372A1 (priority 2020, published 2025).

Columns and labels:
Type in all cases: biochemical
[1] = molecular target: T1, recombinant alpha-glucosidase II (murine full-length glucosidase II, alpha and beta subunits, Glu 2) (Mus musculus, UniProt Q8BHN3); assay: Alpha-glucosidase II assay (4-methylumbelliferyl-alpha-D-pyranoside substrate, fluorescence); conditions: Glucosidase 2; read-out: Glu2 IC50
T1 construct: made in house; host or cells: HEK-293T cells transduced with BacMam viruses (75% alpha, 25% beta); protein harvested from culture supernatant
T1 sequence (O08795 15-521): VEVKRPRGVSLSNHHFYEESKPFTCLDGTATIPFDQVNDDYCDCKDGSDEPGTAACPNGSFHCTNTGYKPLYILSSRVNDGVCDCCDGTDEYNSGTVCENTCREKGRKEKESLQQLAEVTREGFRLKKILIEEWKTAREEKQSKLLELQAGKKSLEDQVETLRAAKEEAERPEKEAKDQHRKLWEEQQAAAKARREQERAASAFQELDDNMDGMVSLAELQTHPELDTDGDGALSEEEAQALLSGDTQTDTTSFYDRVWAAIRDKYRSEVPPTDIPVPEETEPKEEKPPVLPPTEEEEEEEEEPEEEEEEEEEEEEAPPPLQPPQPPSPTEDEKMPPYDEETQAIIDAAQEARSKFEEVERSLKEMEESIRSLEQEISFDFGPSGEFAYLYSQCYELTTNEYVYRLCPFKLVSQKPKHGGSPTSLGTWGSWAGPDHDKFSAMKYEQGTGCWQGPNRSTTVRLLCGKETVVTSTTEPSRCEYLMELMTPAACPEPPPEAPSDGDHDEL
T1 sequence (Q8BHN3 33-944): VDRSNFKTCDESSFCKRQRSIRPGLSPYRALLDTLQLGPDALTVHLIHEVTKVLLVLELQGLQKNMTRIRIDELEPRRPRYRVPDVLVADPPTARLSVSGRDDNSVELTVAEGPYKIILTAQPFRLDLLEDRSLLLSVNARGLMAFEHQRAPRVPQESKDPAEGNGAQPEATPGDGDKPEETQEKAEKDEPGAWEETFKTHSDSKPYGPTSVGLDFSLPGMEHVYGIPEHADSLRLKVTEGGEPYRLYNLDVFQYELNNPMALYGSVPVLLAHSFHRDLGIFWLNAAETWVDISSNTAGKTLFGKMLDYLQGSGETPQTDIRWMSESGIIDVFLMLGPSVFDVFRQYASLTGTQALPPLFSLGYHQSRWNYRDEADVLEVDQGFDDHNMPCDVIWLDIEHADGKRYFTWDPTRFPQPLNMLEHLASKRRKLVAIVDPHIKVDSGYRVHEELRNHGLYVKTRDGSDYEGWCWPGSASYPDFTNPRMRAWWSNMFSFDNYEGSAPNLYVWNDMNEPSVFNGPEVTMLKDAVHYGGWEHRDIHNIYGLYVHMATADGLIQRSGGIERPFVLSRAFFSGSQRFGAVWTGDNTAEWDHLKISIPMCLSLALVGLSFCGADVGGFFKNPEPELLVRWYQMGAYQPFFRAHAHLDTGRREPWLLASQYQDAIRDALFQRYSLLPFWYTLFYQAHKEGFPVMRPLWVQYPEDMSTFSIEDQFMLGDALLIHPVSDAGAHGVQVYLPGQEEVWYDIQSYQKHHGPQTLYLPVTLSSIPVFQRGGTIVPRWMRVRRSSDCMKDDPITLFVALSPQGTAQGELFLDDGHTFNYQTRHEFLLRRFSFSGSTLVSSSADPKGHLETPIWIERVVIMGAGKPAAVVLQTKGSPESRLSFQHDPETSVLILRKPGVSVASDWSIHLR

[2] = molecular target: recombinant human GAA (acid alpha-glucosidase) (Homo sapiens, UniProt P10253); assay: Acid alpha-glucosidase (GAA) assay (4-methylumbelliferyl-alpha-D-pyranoside substrate, fluorescence)
Method: Acid alpha-glucosidase (GAA): To analyze inhibitory effects of a test compound, commercially available recombinant human GAA was incubated with multiple dilutions of test compound for 60 minutes at 37° C. 4-methylumbelliferyl-alpha-D-pyranoside was then introduced to the mixture as the substrate. 1,4-methyllumbelliferone is generated, and after an incubation for 20 minutes at 37° C., the reaction was stopped with the stop solution (0.5M glycine 0.3M NaOH pH 10). 1,4-methyllumbelliferone is detected by fluorescence (excitation at 365 nm, emission at 440 nm). Relative fluorescence compared to untreated enzymatic activity and test compound concentration is plotted as a function of percent inhibition. The IC50 is determined using a 4-PL curve fit as the measure of relative inhibitory activity of each test compound (see Table 3).

[3] = molecular target: T2, recombinant human GBA (beta-glucocerebrosidase) (Homo sapiens, UniProt P04062); assay: Beta-glucocerebrosidase (GBA, glucosylceramidase) assay (4-methylumbelliferyl-beta-D-pyranoside substrate, fluorescence)
T2 sequence (P04062 40-536): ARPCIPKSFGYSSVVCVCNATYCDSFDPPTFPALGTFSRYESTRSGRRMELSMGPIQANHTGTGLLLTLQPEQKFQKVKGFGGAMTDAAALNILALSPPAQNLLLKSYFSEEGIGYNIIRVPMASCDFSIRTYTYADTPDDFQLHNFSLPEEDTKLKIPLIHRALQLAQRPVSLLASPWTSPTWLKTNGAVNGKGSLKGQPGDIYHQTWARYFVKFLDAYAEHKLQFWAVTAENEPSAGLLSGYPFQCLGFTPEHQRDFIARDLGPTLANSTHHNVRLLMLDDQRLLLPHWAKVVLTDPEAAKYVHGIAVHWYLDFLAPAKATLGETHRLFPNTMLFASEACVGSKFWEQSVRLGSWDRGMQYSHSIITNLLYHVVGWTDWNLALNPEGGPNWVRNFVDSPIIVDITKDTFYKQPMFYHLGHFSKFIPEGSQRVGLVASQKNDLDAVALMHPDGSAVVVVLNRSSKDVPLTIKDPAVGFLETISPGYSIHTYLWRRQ
Method: Beta-glucocerebrosidase (GBA, also referred to glucosylceramidase): To analyze inhibitory effects of a test compound, commercially available recombinant human GBA was incubated with multiple dilutions of test compound for 60 minutes at 37° C. 4-methylumbelliferyl-beta-D-pyranoside was then introduced to the mixture as substrate. Following incubation for 60 minutes at 37° C., 1,4-methyllumbelliferone was generated, and the reaction was stopped with the stop solution (0.5 M glycine; 0.3 M NaOH, pH 10). 1,4-methyllumbelliferone was detected by fluorescence (excitation at 365 nm, emission at 440 nm). Relative fluorescence compared to untreated enzymatic activity and test compound concentration is then plotted as a function of percent inhibition. The IC50 was determined using a 4-PL curve fit as the measure of relative inhibitory activity of each test compound (see Table 3).

[4] = molecular target: rat maltase (partially purified alpha-glucosidase from intestinal rat powder); assay: Intestinal alpha-glucosidase assay, maltose substrate (Glucose GO Kit)
Method: (§1) Intestinal alpha-glucosidases (rat maltase and sucrase): Intestinal alpha-glucosidases act upon 1,4-alpha-glucoside bonds, breaking down disaccharides to glucose. To perform this assay, partially purified alpha-glucosidase from intestinal rat powder was incubated for 60 minutes at 37° C. with multiple dilutions of test compounds. Maltose or Sucrose respectively was then introduced as substrate to the mixture and incubated for 30 minutes at 37° C. The reaction was stopped by a 5-minute incubation at 90° C. and the resultant glucose production is detected using Sigma's Glucose GO Kit. Percent inhibition was then plotted as a function of concentration for each test compound. The IC50 was determined using a 4-PL curve fit and serves as the measure of relative inhibition of each test compound (see Table 3).

[5] = molecular target: rat sucrase (partially purified alpha-glucosidase from intestinal rat powder) (Rattus norvegicus, UniProt P23739); assay: Intestinal alpha-glucosidase assay, sucrose substrate (Glucose GO Kit)
Sequence of rat sucrase (partially purified alpha-glucosidase from intestinal rat powder) (P23739 whole entry): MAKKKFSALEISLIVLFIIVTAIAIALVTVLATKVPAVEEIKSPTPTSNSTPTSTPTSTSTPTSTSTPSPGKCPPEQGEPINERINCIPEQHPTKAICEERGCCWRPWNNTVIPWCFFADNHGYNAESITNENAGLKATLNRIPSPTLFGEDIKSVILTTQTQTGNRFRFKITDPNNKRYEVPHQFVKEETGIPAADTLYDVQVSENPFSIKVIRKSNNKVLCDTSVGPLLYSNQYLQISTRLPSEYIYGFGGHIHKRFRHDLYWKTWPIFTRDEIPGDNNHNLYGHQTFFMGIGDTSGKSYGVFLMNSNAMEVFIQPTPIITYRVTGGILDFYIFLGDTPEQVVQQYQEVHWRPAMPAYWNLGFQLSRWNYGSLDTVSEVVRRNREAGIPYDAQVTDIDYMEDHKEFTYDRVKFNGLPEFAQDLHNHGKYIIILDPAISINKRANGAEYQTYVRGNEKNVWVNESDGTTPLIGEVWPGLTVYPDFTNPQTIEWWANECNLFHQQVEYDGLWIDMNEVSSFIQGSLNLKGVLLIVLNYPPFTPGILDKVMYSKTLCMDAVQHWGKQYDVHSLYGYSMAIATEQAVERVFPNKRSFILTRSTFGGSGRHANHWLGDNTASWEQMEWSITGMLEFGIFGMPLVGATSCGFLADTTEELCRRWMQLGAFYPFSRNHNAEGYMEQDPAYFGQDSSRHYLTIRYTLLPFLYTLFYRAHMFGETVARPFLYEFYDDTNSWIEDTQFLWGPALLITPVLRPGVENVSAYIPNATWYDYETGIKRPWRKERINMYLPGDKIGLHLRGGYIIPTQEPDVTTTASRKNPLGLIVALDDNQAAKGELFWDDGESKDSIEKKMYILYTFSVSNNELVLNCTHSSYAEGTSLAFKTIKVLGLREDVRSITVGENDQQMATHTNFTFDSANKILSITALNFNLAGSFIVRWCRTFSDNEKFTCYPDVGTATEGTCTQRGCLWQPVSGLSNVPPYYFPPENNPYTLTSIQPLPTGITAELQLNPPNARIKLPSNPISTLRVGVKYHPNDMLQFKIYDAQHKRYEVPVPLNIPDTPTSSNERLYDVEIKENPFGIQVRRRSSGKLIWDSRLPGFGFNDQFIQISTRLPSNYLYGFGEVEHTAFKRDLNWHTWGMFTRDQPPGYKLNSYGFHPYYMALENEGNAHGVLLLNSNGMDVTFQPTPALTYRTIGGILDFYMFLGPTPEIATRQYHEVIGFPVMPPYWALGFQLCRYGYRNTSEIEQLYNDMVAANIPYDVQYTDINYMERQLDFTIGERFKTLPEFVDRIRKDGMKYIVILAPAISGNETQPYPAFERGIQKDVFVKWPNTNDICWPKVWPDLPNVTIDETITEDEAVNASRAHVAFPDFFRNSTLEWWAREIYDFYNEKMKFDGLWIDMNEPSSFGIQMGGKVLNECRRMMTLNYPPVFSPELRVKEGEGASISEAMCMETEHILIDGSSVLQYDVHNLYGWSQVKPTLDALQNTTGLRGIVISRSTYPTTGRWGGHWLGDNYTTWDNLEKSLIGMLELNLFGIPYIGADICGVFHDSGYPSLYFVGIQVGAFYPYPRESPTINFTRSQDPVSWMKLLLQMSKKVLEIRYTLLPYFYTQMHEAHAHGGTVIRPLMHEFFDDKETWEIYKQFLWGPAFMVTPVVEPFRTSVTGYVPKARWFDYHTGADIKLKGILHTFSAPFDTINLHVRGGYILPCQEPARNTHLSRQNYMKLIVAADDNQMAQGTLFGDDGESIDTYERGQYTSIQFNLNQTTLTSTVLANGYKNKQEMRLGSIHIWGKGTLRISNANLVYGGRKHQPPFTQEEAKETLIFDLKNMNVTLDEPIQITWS
Method: as §1

Row | SMILES | IC50 [1] [nM] | IC50 [2] [nM] | IC50 [3] [nM] | IC50 [4] [nM] | IC50 [5] [nM]
1 | COc1cc(NCCc2ccc(CCN3C[C@H](O)[C@@H](O)[C@H](O)[C@H]3CO)cc2)cc(C2=COCCO2)c1 [Compound 1155, (2R,3R,4R,5S)-1-{2-[4-(2-{[3-(5,6-dihydro-1,4-dioxin-2-yl)-5-methoxyphenyl]amino}ethyl)phenyl]ethyl}-2-(hydroxymethyl)piperidine-3,4,5-triol] | < 1 | 455 | 3540 | 418 | 726
2 | OC[C@@H]1[C@@H](O)[C@H](O)[C@@H](O)CN1CCc1ccc(CCNc2cc(Cl)cc(-c3ccco3)c2)cc1 [Compound 1159, (2R,3R,4R,5S)-1-{2-[4-(2-{[3-chloro-5-(furan-2-yl)phenyl]amino}ethyl)phenyl]ethyl}-2-(hydroxymethyl)piperidine-3,4,5-triol] | 91 | < 1 | 1050 | 25 | 847
3 | COc1cc(NCCc2ccc(CCN3C[C@H](O)[C@@H](O)[C@H](O)[C@H]3CO)cc2)cc(C2=CCOCC2)c1 [Compound 1154, (2R,3R,4R,5S)-1-{2-[4-(2-{[3-(3,6-dihydro-2H-pyran-4-yl)-5-methoxyphenyl]amino}ethyl)phenyl]ethyl}-2-(hydroxymethyl)piperidine-3,4,5-triol] | 2 | 296 | 1700 | 624 | 2880
4 | CCCc1nc(-c2cc(Cl)cc(NCCc3ccc(CCN4C[C@H](O)[C@@H](O)[C@H](O)[C@H]4CO)cc3)c2)no1 [Compound 1123, (2R,3R,4R,5S)-1-{2-[4-(2-{[3-chloro-5-(5-propyl-1,2,4-oxadiazol-3-yl)phenyl]amino}ethyl)phenyl]ethyl}-2-(hydroxymethyl)piperidine-3,4,5-triol] | 329 | 700 | 627 | 440 | 2810
5 | N#Cc1cc(Cl)cc(NCCc2ccc(CCN3C[C@H](O)[C@@H](O)[C@H](O)[C@H]3CO)cc2)c1 [Compound 1134, 3-chloro-5-{[2-(4-{2-[(2R,3R,4R,5S)-3,4,5-trihydroxy-2-(hydroxymethyl)piperidin-1-yl]ethyl}phenyl)ethyl]amino}benzonitrile] | 1 | 167 | 2360 | 130 | 259
6 | [N-]=[N+]=Nc1ccc(NCCc2ccc(CCN3C[C@@H](O)[C@H](O)[C@@H](O)[C@@H]3CO)c3ccccc23)c([N+](=O)[O-])c1 (stereo in doubt) [Compound 1178, (2S,3S,4S,5R)-1-[2-(4-{2-[(4-azido-2-nitrophenyl)amino]ethyl}naphthalen-1-yl)ethyl]-2-(hydroxymethyl)piperidine-3,4,5-triol] | 9360 | 5930 | 5900 | 3480 | 71500
7 | COc1cc(NCCCCCCN2C[C@H](O)[C@@H](O)[C@H](O)[C@H]2CO)cc(C2=CCCO2)c1 [Compound 1147, (2R,3R,4R,5S)-1-(6-{[3-(4,5-dihydrofuran-2-yl)-5-methoxyphenyl]amino}hexyl)-2-(hydroxymethyl)piperidine-3,4,5-triol] | 34 | 38 | 1980 | 8 | 40
8 | OC[C@@H]1[C@@H](O)[C@H](O)[C@@H](O)CN1CCc1ccc(CCNc2cc(Cl)cc(-c3cccnn3)c2)cc1 [Compound 1163, (2R,3R,4R,5S)-1-{2-[4-(2-{[3-chloro-5-(pyridazin-3-yl)phenyl]amino}ethyl)phenyl]ethyl}-2-(hydroxymethyl)piperidine-3,4,5-triol] | < 1 | 93 | 6820 | 309 | 584
9 | [N-]=[N+]=Nc1ccc(NCc2cccc(CN3C[C@H](O)[C@@H](O)[C@H](O)[C@H]3CO)c2)c([N+](=O)[O-])c1 [Compound 1169, (2R,3R,4R,5S)-1-[(3-{[(4-azido-2-nitrophenyl)amino]methyl}phenyl)methyl]-2-(hydroxymethyl)piperidine-3,4,5-triol] | 16100 | 420 | 83500 | < 1 | < 1
10 | [N-]=[N+]=Nc1ccc(NCCc2ccc(CCN3C[C@H](O)[C@@H](O)[C@H](O)[C@H]3CO)c3c2OCCO3)c([N+](=O)[O-])c1 [Compound 1173, (2R,3R,4R,5S)-1-[2-(8-{2-[(4-azido-2-nitrophenyl)amino]ethyl}-2,3-dihydro-1,4-benzodioxin-5-yl)ethyl]-2-(hydroxymethyl)piperidine-3,4,5-triol] | 666 | 1800 | 5320 | 48 | 456
11 | COC(OC)c1cc(NCCCCCCN2C[C@H](O)[C@@H](O)[C@H](O)[C@H]2CO)cc(-c2ncccn2)c1 [Compound 1124, (2R,3R,4R,5S)-1-(6-{[3-(dimethoxymethyl)-5-(pyrimidin-2-yl)phenyl]amino}hexyl)-2-(hydroxymethyl)piperidine-3,4,5-triol] | 18 | 36 | 3000 | 23 | 147
12 | OC[C@@H]1[C@@H](O)[C@H](O)[C@@H](O)CN1CCCCCCNc1cc(-c2cccnn2)cc(C2CC2)c1 [Compound 1008, (2R,3R,4R,5S)-1-(6-{[3-cyclopropyl-5-(pyridazin-3-yl)phenyl]amino}hexyl)-2-(hydroxymethyl)piperidine-3,4,5-triol] | 12 | 64 | 2330 | 6 | 78
13 | COCCc1ccc(CCCCCN2C[C@H](O)[C@@H](O)[C@H](O)[C@H]2CO)cc1 [Compound 1307, (2R,3R,4R,5S)-2-(hydroxymethyl)-1-{5-[4-(2-methoxyethyl)phenyl]pentyl}piperidine-3,4,5-triol] | 77 | 950 | 5000 | 32 | 387
14 | OC[C@@H]1[C@@H](O)[C@H](O)[C@@H](O)CN1CCCCCCNc1cc(-c2ncccn2)cc(C2CC2)c1 [Compound 1009, (2R,3R,4R,5S)-1-(6-{[3-cyclopropyl-5-(pyrimidin-2-yl)phenyl]amino}hexyl)-2-(hydroxymethyl)piperidine-3,4,5-triol] | 17 | 62 | 2590 | 7 | 71
15 | N#Cc1cc(NCc2cccc(CN3C[C@H](O)[C@@H](O)[C@H](O)[C@H]3CO)c2)cc(C2=COCCO2)c1 [Compound 1044, 3-(5,6-dihydro-1,4-dioxin-2-yl)-5-{[(3-{[(2R,3R,4R,5S)-3,4,5-trihydroxy-2-(hydroxymethyl)piperidin-1-yl]methyl}phenyl)methyl]amino}benzonitrile] | 2670 | 1420 | 53200 | < 1 | < 1
16 | OC[C@@H]1[C@@H](O)[C@H](O)[C@@H](O)CN1CCc1ccc(CCNc2cc(Cl)cc(C3=CCOCC3)c2)cc1 [Compound 1160, (2R,3R,4R,5S)-1-{2-[4-(2-{[3-chloro-5-(3,6-dihydro-2H-pyran-4-yl)phenyl]amino}ethyl)phenyl]ethyl}-2-(hydroxymethyl)piperidine-3,4,5-triol] | – | 24 | 1860 | 75 | 931
